Data published in the supplement of paper PMC11061612.

Experiments:
Assay in all cases: Bliss excess, mean over the matrix (fraction); higher = more synergy
[1] = system: C3A (Hepatocellular Carcinoma)
Summary of the method: (§1)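 Cell lines in DMEM/F12 or RPMI with 10% FBS were plated in 1536-well plates, held 24 hours at 37°C, 5% CO2, then given two-drug dose matrices for 72 hours (DMSO typically 0.2%). Viability was read by CellTiter-Glo 2.0 luminescence and scaled as inhibition from 0 (vehicle wells) to 1 (blank wells). Combination Emax is the second-highest inhibition in the matrix; Bliss excess is observed combination effect minus expected EA + EB − EA·EB, EA and EB being single-agent effects.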

CAL-78 (Chondrosarcoma) = system: CAL-78 (Chondrosarcoma)
Summary of the method: as §1

[2] = system: DB (B-Cell Non-Hodgkin's Lymphoma)
Summary of the method: as §1

[3] = system: DOV13 (Ovarian Carcinoma)
Summary of the method: as §1

DSH1 (Bladder Carcinoma) = system: DSH1 (Bladder Carcinoma)
Summary of the method: as §1

[4] = system: EM-2 (Chronic Myelogenous Leukemia)
Summary of the method: as §1

ES7 (Ewing's Sarcoma) = system: ES7 (Ewing's Sarcoma)
Summary of the method: as §1

[5] = system: HCC2157 (Breast Carcinoma)
Summary of the method: as §1

[6] = system: JiyoyeP-2003 (Burkitt's Lymphoma)
Summary of the method: as §1

[7] = system: KARPAS-620 (Plasma Cell Myeloma)
Summary of the method: as §1

[8] = system: LS-513 (Colorectal Carcinoma)
Summary of the method: as §1

[9] = system: LU-99A (Non-Small Cell Lung Carcinoma)
Summary of the method: as §1

[10] = system: MDA-MB-157 (Breast Carcinoma)
Summary of the method: as §1

[11] = system: NALM-6 (B-Lymphoblastic Leukemia)
Summary of the method: as §1

[12] = system: NCI-H1299 (Non-Small Cell Lung Carcinoma)
Summary of the method: as §1

[13] = system: NCI-H1793 (Lung Adenocarcinoma)
Summary of the method: as §1

[14] = system: OCI-AML2 (Acute Myeloid Leukemia)
Summary of the method: as §1

SK-N-FI (Neuroblastoma) = system: SK-N-FI (Neuroblastoma)
Summary of the method: as §1

[15] = system: SUIT-2 (Pancreatic Carcinoma)
Summary of the method: as §1

[16] = system: U-266 (Plasma Cell Myeloma)
Summary of the method: as §1

SMILES	Bliss excess [1]	Bliss excess (CAL-78 (Chondrosarcoma))	Bliss excess [2]	Bliss excess [3]	Bliss excess (DSH1 (Bladder Carcinoma))	Bliss excess [4]	Bliss excess (ES7 (Ewing's Sarcoma))	Bliss excess [5]	Bliss excess [6]	Bliss excess [7]	Bliss excess [8]	Bliss excess [9]	Bliss excess [10]	Bliss excess [11]	Bliss excess [12]	Bliss excess [13]	Bliss excess [14]	Bliss excess (SK-N-FI (Neuroblastoma))	Bliss excess [15]	Bliss excess [16]
CC(=O)c1c(C)c2cnc(Nc3ccc(N4CCNCC4)cn3)nc2n(C2CCCC2)c1=O [Palbociclib] + Cc1c2c(nn1C)CSCc1cc(n(C)n1)CSc1cc(c3ccccc3c1)OCCCc1c(C(=O)O)n(C)c3c-2c(Cl)ccc13 [AZD5991] (first compound max 10 µM, 7x7, partner max 1 µM)	0.0027	-0.0395	0.0577	-0.0567	-0.0748	-0.021	-0.005	-0.0106	-0.0436	0.0443	-0.0235	-0.046	-0.0408	0.0147	0.0018	-0.0299	0.004	-0.0412	-0.014	-0.019
COc1cc2c(cc1OCCCCCOc1cc3c(cc1OC)C(=O)N1C=C(C)C[C@H]1C=N3)N=C[C@@H]1CC(C)=CN1C2=O [SG3199] + O=C(c1cc(Cc2n[nH]c(=O)c3ccccc23)ccc1F)N1CCN(C(=O)C2CC2)CC1 [Olaparib] (first compound max 0.001 µM, 7x7, partner max 10 µM)	-0.0528	-0.0831	-0.0272	-0.0443	-0.0442	0.0107	0.0011	0.0277	-0.0016	-0.0015	-0.0372	-0.0672	-0.0185	-0.0302	-0.0381	-0.0323	-0.0546	-0.0296	-0.0029	-0.0601
Cn1cnc2c(F)c(Nc3ccc(Br)cc3Cl)c(C(=O)NOCCO)cc21 [Selumetinib] + C=CCn1c(=O)c2cnc(Nc3ccc(N4CCN(C)CC4)cc3)nc2n1-c1cccc(C(C)(C)O)n1 [AZD1775] (first compound max 10 µM, partner max 1 µM)	-0.022	-0.07	-0.193	-0.0631	-0.0355	-0.0618	-0.0548	0.0111	-0.0563	0.0719	-0.0339	-0.0624	0.0096	0.0755	-0.02	-0.0764	0.0274	-0.0433	-0.0417	0.0598
CC1(C)CCC(CN2CCN(c3ccc(C(=O)NS(=O)(=O)c4ccc(NCC5CCOCC5)c([N+](=O)[O-])c4)c(Oc4cnc5[nH]ccc5c4)c3)CC2)=C(c2ccc(Cl)cc2)C1 [Venetoclax] + CN(C)CCCOc1ccc(-c2ccc3ncc4c(c3c2)n(C2CCOCC2)c(=O)n4C)cn1 [AZD0156] (first compound max 1 µM, 7x7, partner max 1 µM)	-0.0414	-0.0043	-0.0166	-0.0231	-0.0305	-0.0045	0.0317	0.0314	-0.0128	0.04	-0.0273	-0.0375	-0.0087	0.0426	-0.004	-0.0158	-0.0267	0	0.0031	0.0264
CC(=O)c1c(C)c2cnc(Nc3ccc(N4CCNCC4)cn3)nc2n(C2CCCC2)c1=O [Palbociclib] + Cn1cnc2c(F)c(Nc3ccc(Br)cc3Cl)c(C(=O)NOCCO)cc21 [Selumetinib] (first compound max 10 µM, 7x7, partner max 10 µM)	-0.0011	-0.0463	-0.0167	-0.233	-0.0834	0.0533	0.0067	-0.036	0.0443	0.166	0.0207	-0.0398	-0.0396	0.0335	0.108	-0.012	0.0685	0.016	0.0481	0.0393
Cn1cnc2c(F)c(Nc3ccc(Br)cc3Cl)c(C(=O)NOCCO)cc21 [Selumetinib] + C[C@@H]1COCCN1C2=NC(=NC(=C2)C3(CC3)[S@](=N)(=O)C)C4=C5C=CNC5=NC=C4 [AZD6738] (first compound max 10 µM, 7x7, partner max 10 µM)	0.0471	-0.0911	-0.0353	-0.11	-0.0734	0.0264	-0.0585	0.0059	-0.0145	0.0471	0.0046	0.0565	-0.0203	-0.0063	0.0454	-0.0402	0.0141	0.0325	0.0298	-0.0303
CN(C)CCCOc1ccc(-c2ccc3ncc4c(c3c2)n(C2CCOCC2)c(=O)n4C)cn1 [AZD0156] + O=C(c1cc(Cc2n[nH]c(=O)c3ccccc23)ccc1F)N1CCN(C(=O)C2CC2)CC1 [Olaparib] (first compound max 3 µM, partner max 3 µM)	-0.0171	0.0042	0.149	0.0258	0.0328	0.0753	0.291	0.0313	0.007	0.0798	0.0071	-0.0145	-0.0302	0.173	0.0495	0.0074	0.171	-0.0123	0.028	-0.106
COc1cccc(OCCCN)c1-c1cc(Nc2cnc(C#N)cn2)n[nH]1 [Prexasertib] + CCc1c2c(nc3ccc(O)cc13)-c1cc3c(c(=O)n1C2)COC(=O)[C@]3(O)CC [SN-38] (first compound max 1 µM, 7x7, partner max 0.3 µM)	-0.112	-0.0348	-0.0299	-0.0444	0.0128	-0.0352	-0.012	0.0649	0.0073	0.0396	-0.0691	-0.0593	0.0027	-0.0555	-0.0161	-0.0209	-0.0094	0.0093	-0.0582	-0.0412
CN(C)CCCOc1ccc(-c2ccc3ncc4c(c3c2)n(C2CCOCC2)c(=O)n4C)cn1 [AZD0156] + CCN(CCO)CCCOc1ccc2c(Nc3cc(CC(=O)Nc4cccc(F)c4)[nH]n3)ncnc2c1 [AZD2811] (first compound max 1 µM, 7x7, partner max 1 µM)	-0.0792	0.006	-0.0221	0.0385	0.0062	-0.0445	-0.0172	0.112	0.0832	0.112	-0.0559	-0.0341	-0.0069	-0.0755	-0.021	-0.0309	0.0665	-0.0144	-0.0029	0.0028
NC1(C(=O)N[C@@H](CCO)c2ccc(Cl)cc2)CCN(c2ncnc3[nH]ccc23)CC1 [Capivasertib] + CC(C)n1c(=O)n(C)c2cnc3cc(F)c(-c4ccc(OCCCN5CCCCC5)nc4)cc3c21 [AZD1390] (first compound max 10 µM, 7x7, partner max 0.3 µM)	-0.0724	-0.0382	-0.0494	-0.0407	-0.0895	-0.0446	-0.0471	0.002	-0.024	-0.0273	-0.0511	-0.0962	-0.0306	-0.0863	-0.0362	-0.0745	-0.0448	-0.0588	-0.0441	-0.101
Cc1c2c(nn1C)CSCc1cc(n(C)n1)CSc1cc(c3ccccc3c1)OCCCc1c(C(=O)O)n(C)c3c-2c(Cl)ccc13 [AZD5991] + Cn1cnc2c(F)c(Nc3ccc(Br)cc3Cl)c(C(=O)NOCCO)cc21 [Selumetinib] (first compound max 1 µM, 7x7, partner max 3 µM)	-0.0476	-0.0288	0.0063	0.0216	-0.0881	-0.0053	0.0375	-0.0137	0.0039	0.0919	-0.0242	-0.0363	-0.0098	0.0165	-0.0039	0.0133	0.0107	-0.0042	-0.0135	0.0068
Cc1cc2ncnn2cc1Nc1ncc2c(n1)n(C1CCOCC1)c(=O)n2C [AZD7648] + CCN(CCO)CCCOc1ccc2c(Nc3cc(CC(=O)Nc4cccc(F)c4)[nH]n3)ncnc2c1 [AZD2811] (first compound max 10 µM, 7x7, partner max 1 µM)	0.0219	-0.0053	0.0438	-0.0551	0.0145	-0.073	-0.0538	0.0278	0.0829	0.0088	-0.0033	0.0216	0.0572	-0.0358	0.0093	-0.005	-0.0004	0.0094	-0.0169	0.0204
CCN(CCO)CCCOc1ccc2c(Nc3cc(CC(=O)Nc4cccc(F)c4)[nH]n3)ncnc2c1 [AZD2811] + O=C(c1cc(Cc2n[nH]c(=O)c3ccccc23)ccc1F)N1CCN(C(=O)C2CC2)CC1 [Olaparib] (first compound max 1 µM, 7x7, partner max 10 µM)	-0.0495	0.0006	-0.0544	-0.0824	0.0082	-0.0589	-0.0184	-0.0105	0.0809	0.0273	-0.0158	-0.0181	0.032	-0.0086	-0.0131	-0.0264	-0.0351	-0.0001	-0.0254	-0.0139
Cc1cc2ncnn2cc1Nc1ncc2c(n1)n(C1CCOCC1)c(=O)n2C [AZD7648] + C[C@@H]1COCCN1C2=NC(=NC(=C2)C3(CC3)[S@](=N)(=O)C)C4=C5C=CNC5=NC=C4 [AZD6738] (first compound max 10 µM, 7x7, partner max 10 µM)	0.0722	0.0344	-0.0509	-0.0039	-0.0234	-0.0013	0.074	-0.0528	0.0127	-0.0283	0.0641	0.0077	-0.0029	-0.0561	0.0116	-0.0059	0.0045	-0.005	-0.0306	-0.0168
CN(CCO)CC[C@H](CSc1ccccc1)Nc1ccc(S(=O)(=O)NC(=O)c2ccc(N3CCC([C@@H](O)c4ccccc4-c4ccc(Cl)cc4)CC3)cc2)cc1S(=O)(=O)C(F)(F)F [AZD4320] + C[C@@H](Nc1cc(F)cc(F)c1)c1cc(C(=O)N(C)C)cc2c(=O)cc(N3CCOCC3)oc12 [AZD8186] (first compound max 1 µM, 7x7, partner max 3 µM)	0.0183	0.0323	-0.0096	-0.0141	-0.0381	0.0055	0.136	0.0774	0.0195	0.0147	-0.0076	-0.0296	0.0338	0.0514	0.0118	0.0516	0.0556	-0.0165	0.025	-0.0077
